For one data set, the target named is SUV4-20H2 (h) (Homo sapiens, UniProt Q86Y97). Particulars: read-out: Reference: (IC50 not given); cited from earlier work.
For a further data set, the target named is Lipid Peroxidase. The data set can be described thus: Lipid Peroxidase. The data set is classed as biochemical, Dunkin Hartley Guinea pig. Particulars: concentration-response 10 to 0.01 μM.
The next data set addresses dopamine D1 (h) (Homo sapiens, UniProt P21728). The data set is described as follows: biochemical. The data set is classed as binding.
Data set [1] addresses T1, enzymes (Bioprint panel) (Homo sapiens, UniProt O00408).
T1 construct: other: PDE2A1 (h); 10 μM; PDE2A1 (h)
The data set can be described thus: biochemical. Particulars: PDE2A1 (h); 10 μM; read-out: % Inhibition of Control Values.

In data set [2] the target is enzymes (Bioprint panel) (Homo sapiens, UniProt P06241). The data set can be described thus: biochemical. Particulars: Fyn kinase (h); 10 μM; read-out: % Inhibition of Control Values.
enzymes (Bioprint panel) (Homo sapiens, UniProt P06241), sequence (P06241 whole entry): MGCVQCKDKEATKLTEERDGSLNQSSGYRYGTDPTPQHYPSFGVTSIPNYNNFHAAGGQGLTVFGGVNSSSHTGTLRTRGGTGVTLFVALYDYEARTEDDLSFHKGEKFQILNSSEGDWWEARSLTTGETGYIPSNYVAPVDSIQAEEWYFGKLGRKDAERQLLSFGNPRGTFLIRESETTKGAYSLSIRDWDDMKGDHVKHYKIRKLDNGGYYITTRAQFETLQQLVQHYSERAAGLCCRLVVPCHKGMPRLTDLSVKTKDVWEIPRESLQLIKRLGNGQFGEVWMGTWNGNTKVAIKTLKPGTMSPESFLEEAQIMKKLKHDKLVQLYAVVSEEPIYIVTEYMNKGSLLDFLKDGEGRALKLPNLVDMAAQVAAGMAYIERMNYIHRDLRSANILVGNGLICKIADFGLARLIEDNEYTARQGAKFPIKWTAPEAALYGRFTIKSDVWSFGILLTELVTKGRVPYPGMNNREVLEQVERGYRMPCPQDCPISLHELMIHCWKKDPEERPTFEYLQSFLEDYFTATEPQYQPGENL
For data set [3], the target named is enzymes (Bioprint panel) (Homo sapiens, UniProt P28482). The data set is described as follows: biochemical. Particulars: ERK2 (h) (P42mapk); 10 μM; read-out: % Inhibition of Control Values.
enzymes (Bioprint panel) (Homo sapiens, UniProt P28482), sequence (P28482 whole entry): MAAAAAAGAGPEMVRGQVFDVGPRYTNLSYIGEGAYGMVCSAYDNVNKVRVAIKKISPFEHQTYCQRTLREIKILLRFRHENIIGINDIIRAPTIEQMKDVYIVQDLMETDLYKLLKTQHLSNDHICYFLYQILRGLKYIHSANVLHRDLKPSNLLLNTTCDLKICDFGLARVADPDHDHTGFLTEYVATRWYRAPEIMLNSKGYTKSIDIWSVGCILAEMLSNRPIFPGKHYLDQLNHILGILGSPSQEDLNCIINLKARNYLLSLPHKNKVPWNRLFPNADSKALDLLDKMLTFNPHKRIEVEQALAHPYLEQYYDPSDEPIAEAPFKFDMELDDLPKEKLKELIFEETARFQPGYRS
Data set [4] has as its target enzymes (Bioprint panel) (Homo sapiens, UniProt P43403). The data set is described as follows: biochemical. Particulars: ZAP70 kinase (h); 10 μM; read-out: % Inhibition of Control Values.
Data set [5] deals with enzymes (Bioprint panel) (Homo sapiens, UniProt P56817). The data set can be described thus: biochemical. Particulars: BACE-1 (h) (beta -secretase); 10 μM; read-out: % Inhibition of Control Values.
enzymes (Bioprint panel) (Homo sapiens, UniProt P56817), sequence (P56817 46-501): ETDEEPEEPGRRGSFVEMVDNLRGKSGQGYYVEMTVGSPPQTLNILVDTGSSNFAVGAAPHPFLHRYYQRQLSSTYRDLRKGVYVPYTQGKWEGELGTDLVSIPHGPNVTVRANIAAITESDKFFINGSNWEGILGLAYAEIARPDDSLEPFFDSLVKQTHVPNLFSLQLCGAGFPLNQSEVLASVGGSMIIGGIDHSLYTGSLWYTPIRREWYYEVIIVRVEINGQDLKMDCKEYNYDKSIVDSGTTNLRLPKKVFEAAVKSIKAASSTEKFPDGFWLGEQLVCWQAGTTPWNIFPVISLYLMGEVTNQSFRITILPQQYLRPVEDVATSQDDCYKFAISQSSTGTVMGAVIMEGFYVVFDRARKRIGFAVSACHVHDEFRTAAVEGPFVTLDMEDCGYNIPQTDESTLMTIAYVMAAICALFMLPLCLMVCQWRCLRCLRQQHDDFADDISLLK
Data set [6] in a line: PBMC cell viability (assay number 1322). The format is cell-based, human. Particulars: human; read-out: Inhibition of cell viability, Max Effect.
A further data set relates to human PBMC. The data set can be described thus: PBMC cell viability (assay number 1322). The data set is classed as cell-based. Particulars: Homo sapiens, PBMC; read-out: Inhibition of cell viability, Rel EC50.

We go through two molecules from patent publication US11331299B2, “Medicinal use of serrulatane diterpenes” (The University of Sydney, priority 2016, dated 2022).

Like-named read-outs stand apart in the source and are kept apart here.

The term IC50 denotes the midpoint of a concentration-inhibition curve. In general, inhibition refers to the percentage by which the read-out fell short of the control. One may read the EC50 as the midpoint of the concentration-response curve.

dopamine D1 (h), sequence (P21728 whole entry): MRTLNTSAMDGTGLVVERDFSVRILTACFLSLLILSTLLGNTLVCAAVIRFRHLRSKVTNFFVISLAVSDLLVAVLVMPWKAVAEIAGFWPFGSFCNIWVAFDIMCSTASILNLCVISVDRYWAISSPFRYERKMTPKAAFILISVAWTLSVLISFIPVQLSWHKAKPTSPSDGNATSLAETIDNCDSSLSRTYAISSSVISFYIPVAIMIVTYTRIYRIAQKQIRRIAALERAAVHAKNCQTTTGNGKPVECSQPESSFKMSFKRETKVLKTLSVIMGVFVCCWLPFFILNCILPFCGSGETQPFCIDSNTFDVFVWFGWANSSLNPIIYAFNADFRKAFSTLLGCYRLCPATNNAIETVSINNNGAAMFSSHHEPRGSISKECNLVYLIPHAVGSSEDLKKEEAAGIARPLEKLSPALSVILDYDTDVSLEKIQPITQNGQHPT
enzymes (Bioprint panel) (Homo sapiens, UniProt P43403), sequence (P43403 whole entry): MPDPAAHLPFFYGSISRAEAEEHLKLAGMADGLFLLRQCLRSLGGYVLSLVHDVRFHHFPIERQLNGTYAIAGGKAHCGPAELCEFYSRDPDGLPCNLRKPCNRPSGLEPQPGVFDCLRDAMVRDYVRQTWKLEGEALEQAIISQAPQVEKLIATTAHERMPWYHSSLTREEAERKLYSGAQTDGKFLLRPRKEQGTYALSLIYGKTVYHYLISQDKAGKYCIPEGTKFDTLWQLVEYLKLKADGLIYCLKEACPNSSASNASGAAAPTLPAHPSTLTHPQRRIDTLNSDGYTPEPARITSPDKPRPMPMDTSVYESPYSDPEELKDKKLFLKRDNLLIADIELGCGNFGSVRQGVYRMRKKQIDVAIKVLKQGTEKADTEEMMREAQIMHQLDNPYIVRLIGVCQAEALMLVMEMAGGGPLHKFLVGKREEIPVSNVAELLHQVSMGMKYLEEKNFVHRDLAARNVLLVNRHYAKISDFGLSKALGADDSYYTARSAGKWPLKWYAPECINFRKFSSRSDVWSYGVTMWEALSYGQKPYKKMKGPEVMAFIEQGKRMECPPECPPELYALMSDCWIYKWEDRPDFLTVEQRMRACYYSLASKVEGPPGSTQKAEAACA
T1 sequence (O00408 other isoform, or with tags, fused parts or gaps): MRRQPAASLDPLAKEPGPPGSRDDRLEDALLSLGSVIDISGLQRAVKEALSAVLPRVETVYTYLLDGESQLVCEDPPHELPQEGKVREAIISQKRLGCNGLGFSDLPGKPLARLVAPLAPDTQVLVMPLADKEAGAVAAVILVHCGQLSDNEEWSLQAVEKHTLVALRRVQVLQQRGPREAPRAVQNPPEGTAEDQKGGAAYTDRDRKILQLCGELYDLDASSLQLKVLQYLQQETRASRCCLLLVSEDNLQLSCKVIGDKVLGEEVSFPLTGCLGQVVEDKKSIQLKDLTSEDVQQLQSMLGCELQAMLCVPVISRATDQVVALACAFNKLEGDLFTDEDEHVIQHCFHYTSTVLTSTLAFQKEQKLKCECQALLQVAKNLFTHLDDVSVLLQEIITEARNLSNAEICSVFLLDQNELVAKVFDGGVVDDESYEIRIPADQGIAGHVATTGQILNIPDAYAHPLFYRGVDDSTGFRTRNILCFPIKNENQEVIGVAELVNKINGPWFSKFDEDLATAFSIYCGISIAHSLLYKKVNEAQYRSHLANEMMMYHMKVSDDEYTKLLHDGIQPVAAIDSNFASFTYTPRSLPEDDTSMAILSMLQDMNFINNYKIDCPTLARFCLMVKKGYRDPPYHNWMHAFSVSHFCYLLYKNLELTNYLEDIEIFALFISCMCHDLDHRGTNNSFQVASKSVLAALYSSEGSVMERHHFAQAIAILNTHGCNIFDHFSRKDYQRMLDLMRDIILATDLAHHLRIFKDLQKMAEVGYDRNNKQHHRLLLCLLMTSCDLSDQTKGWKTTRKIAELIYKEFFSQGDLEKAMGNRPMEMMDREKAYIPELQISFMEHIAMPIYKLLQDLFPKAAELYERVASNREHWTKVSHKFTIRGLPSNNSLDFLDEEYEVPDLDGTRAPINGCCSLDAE
SUV4-20H2 (h), sequence (Q86Y97 whole entry): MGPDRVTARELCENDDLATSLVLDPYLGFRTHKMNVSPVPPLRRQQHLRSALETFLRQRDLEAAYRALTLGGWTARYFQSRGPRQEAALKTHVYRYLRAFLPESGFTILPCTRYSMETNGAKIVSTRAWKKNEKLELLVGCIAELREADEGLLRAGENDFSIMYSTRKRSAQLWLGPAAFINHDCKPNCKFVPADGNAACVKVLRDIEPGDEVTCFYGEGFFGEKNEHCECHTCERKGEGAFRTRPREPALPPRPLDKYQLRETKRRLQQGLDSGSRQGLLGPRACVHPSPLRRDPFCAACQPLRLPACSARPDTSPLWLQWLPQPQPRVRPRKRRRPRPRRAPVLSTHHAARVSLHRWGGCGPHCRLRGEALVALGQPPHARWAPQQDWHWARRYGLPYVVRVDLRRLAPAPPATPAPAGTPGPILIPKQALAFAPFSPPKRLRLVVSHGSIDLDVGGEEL

For the molecule `Nc1ncnc2c1ncn2[C@@H]1O[C@H](CSCC[C@H](N)C(=O)O)[C@@H](O)[C@H]1O` [SAH], the IC50 at SUV4-20H2 (h) was 24 µM.
Take `CC(C)=CCC[C@H](CO)[C@@H]1CC[C@@H](C)c2c1cc(C)c(O)c2O` [Compound 1, 7,8,18-trihydroxyserrulat-14-ene]: on Lipid Peroxidase, 1470 nM corresponded to half-maximal inhibition (IC50). For the same molecule, the inhibition at 10 µM was 67% at dopamine D1 (h) (DOPAMINE D1 (h) (antagonist radioligand), read-out: % Inhibition of Control Specific Binding); 67% at dopamine D1 (h) (read-out: % inhibition of control specific binding); 43% at enzymes (Bioprint panel) [1]; 6% on enzymes (Bioprint panel) [2]; 6% at enzymes (Bioprint panel) [3]; 33% on enzymes (Bioprint panel) [4]. Besides, the inhibition at 10 µM at enzymes (Bioprint panel) [5] is 0%. Also, in [6], the cytotoxicity at 3 days is 101%. Besides, the EC50 in the data set with human PBMC came out at 542 nM.
